The text below walks through data of ChEMBL document CHEMBL1201862, “PubChem BioAssay data set” (2004).

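Grown in 96-well plates, cells were treated for 48 hours with each compound at five concentrations. Insufficient inhibition: endpoint recorded as highest concentration tested. GI50 is the concentration that inhibits growth by half.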 Active and inactive are the calls of the source. No stated cut-off is given here; in the data, active = GI50 up to about 1.1 µM and inactive = higher.

What all share (assay): growth of human tumour cells (NCI), 48 h
The test system of assay [1] is HT-29.
In assay [2] the test system is MDA-N.
Assay [3] has as its system Hs-578T.
Assay [4] relates to NCI-H460.
In assay [5] the test system is A549.
Assay [6] deals with OVCAR-3.
Assay [7] relates to HCC 2998.
Assay [8] has as its system M14.
Assay [9] has as its system HCT-116.
Assay [10] deals with SF-539.
The subject of assay [11] is NCI-H522.
Assay [12] relates to 786-0.
For assay [13], the system named is RPMI-8226.
Assay [14] concerns HCT-15.
Assay [15] relates to BT-549.
The test system of assay [16] is EKVX.
The test system of assay [17] is KM12.
Assay [18] relates to PC-3.
In assay [19] the test system is UO-31.
Assay [20] has as its system T47D.

On to `Cc1cn(C2CC(/[N+]([O-])=N\Nc3ccc([N+](=O)[O-])cc3)C(CO)O2)c(=O)[nH]c1=O` (stereo not given), for which the GI50 is > 100 µM (inactive) in assay [1]; > 100 µM (inactive) in assay [2]; > 100 µM (inactive) in [3]; 94.2 µM (inactive) in assay [4]; > 100 µM (inactive) in [5]; > 100 µM (inactive) in [6]. The GI50 in assay [7] was 40.7 µM (inactive); in [8], > 100 µM (inactive); in assay [9] it was > 100 µM (inactive); in assay [10] it was > 100 µM (inactive); in [11] it was > 100 µM (inactive); in assay [12], > 100 µM (inactive). For the same compound, the GI50 in assay [13] is 42.8 µM (inactive); in assay [14], > 100 µM; in assay [15], > 100 µM (inactive); in assay [16], > 100 µM (inactive); in [17], > 100 µM (inactive); in [18] it was > 100 µM (inactive). In addition, in assay [19], the GI50 was > 100 µM (inactive).

As for `COc1ccc(C(=O)/C=C/c2ccncc2)cc1OC`, the GI50 in assay [1] was 8.93 µM (inactive); in assay [2], 13.1 µM (inactive); in [3], 13.7 µM (inactive); in assay [5] it was 15.7 µM (inactive); in [6] it was 6.27 µM (inactive); in [8] it was 14.7 µM (inactive). The GI50 is 6.44 µM (inactive) in assay [9]; 10.3 µM (inactive) in assay [10]; 7.73 µM (inactive) in assay [11]; 11.4 µM (inactive) in [12]; 15.4 µM in [14]; 6.22 µM (inactive) in assay [15]. In addition, the GI50 in [16] was 16.7 µM (inactive); in [20], 12.6 µM (inactive); in assay [18], 16.7 µM (inactive); in assay [19] it was 14.9 µM (inactive).

With `N#Cc1ccc(OC(=O)c2ccc(NC(=N)N)cc2)cc1.c1ccncc1`, the GI50 in assay [1] was 53.7 µM (inactive); in [2], 64.3 µM (inactive); in [3], > 100 µM (inactive); in [4] it was > 100 µM (inactive); in assay [5], > 100 µM (inactive); in [6] it was 30.1 µM (inactive). Moreover, the GI50 in assay [8] was > 100 µM (inactive); in assay [9], 59.3 µM (inactive); in assay [10], 73.6 µM (inactive); in assay [11], 30 µM (inactive); in [12], 66.1 µM (inactive); in assay [13], 40.8 µM (inactive). The GI50 in assay [14] is 46.9 µM; in assay [15], 88.7 µM (inactive); in assay [16] it was > 100 µM (inactive); in assay [17], 57 µM (inactive); in assay [20], 42.5 µM (inactive); in [18], > 100 µM (inactive). Further, in [19], the GI50 was > 100 µM (inactive).

For `c1ccc(CCNc2ccccn2)nc1`, the GI50 in assay [1], in assay [2], in assay [3], in assay [4], in [5] and in assay [6] was > 100 µM (inactive) throughout. For the same compound, the GI50 in [7] is > 100 µM (inactive); in assay [8], > 100 µM (inactive); in assay [9], > 100 µM (inactive); in [11], > 100 µM (inactive); in [12], > 100 µM (inactive); in assay [14], > 100 µM. The GI50 in assay [15], in [16], in assay [17], in [18] and in [19] was > 100 µM (inactive) throughout.

With `Cc1cc(S(=O)(=O)n2ccnc2Oc2cccc(Cl)c2)c(SSc2cc(Cl)c(C)cc2S(=O)(=O)n2ccnc2Oc2cccc(Cl)c2)cc1Cl`, the GI50 in [1] is 7.83 µM (inactive); in [2], 8.38 µM (inactive); in [3], 4.19 µM (inactive); in [4], 7.8 µM (inactive); in assay [5], 7.06 µM (inactive); in assay [6], 8.02 µM (inactive). Further, the GI50 is 20.7 µM (inactive) in [7]; 7.89 µM (inactive) in assay [8]; 6.19 µM (inactive) in [9]; 4.54 µM (inactive) in [10]; 6.79 µM (inactive) in assay [12]; 2.67 µM (inactive) in [13]. The GI50 in assay [14] was 8.67 µM; in assay [15] it was 4.3 µM (inactive); in [16], 4 µM (inactive); in assay [17] it was 5.66 µM (inactive); in assay [20], 2.98 µM (inactive); in [18], 6.11 µM (inactive). Also, the GI50 in assay [19] is 5.96 µM (inactive).

As for `O=C1c2ccccc2-c2c1c(-c1cccc(Br)c1)nc1ccc3ccccc3c21`, the GI50 in assay [1] is > 100 µM (inactive); in assay [2], > 100 µM (inactive); in assay [3] it was 46.9 µM (inactive); in [4], > 100 µM (inactive); in assay [5], > 100 µM (inactive); in assay [6] it was > 100 µM (inactive). In addition, the GI50 in assay [7], in assay [8], in [9], in [10], in assay [12] and in [13] was > 100 µM (inactive) each time. Moreover, the GI50 in [14] is > 100 µM; in assay [15], > 100 µM (inactive); in assay [16], > 100 µM (inactive); in assay [17], > 100 µM (inactive); in assay [20] it was > 100 µM (inactive); in assay [18] it was > 100 µM (inactive). The GI50 in [19] was > 100 µM (inactive).

For `O=C(Nc1ccccc1C(=O)O)C(=Cc1ccccc1O)NC(=O)c1ccccc1`, the GI50 in [1], in assay [3], in assay [4], in assay [5], in assay [6] and in assay [7] was > 100 µM (inactive) each time. Besides, the GI50 is > 100 µM (inactive) in assay [8]; > 100 µM (inactive) in [9]; 58.6 µM (inactive) in [10]; > 100 µM (inactive) in assay [11]; > 100 µM (inactive) in assay [12]; > 100 µM (inactive) in [13]. The GI50 was > 100 µM in assay [14]; > 100 µM (inactive) in assay [15]; > 100 µM (inactive) in assay [16]; > 100 µM (inactive) in assay [17]; 49.1 µM (inactive) in [20]; > 100 µM (inactive) in [18]. Further, in [19], the GI50 is > 100 µM (inactive).

As for `CCOC(=O)c1ccc2c(c1)Cc1cc([N+](=O)[O-])ccc1-2`, the GI50 in assay [1] is 27.1 µM (inactive); in [2], 48 µM (inactive); in [3], 48.9 µM (inactive); in [4], 50.9 µM (inactive); in assay [5], 33.7 µM (inactive); in assay [6], 46.6 µM (inactive). In addition, the GI50 in assay [8] was 97.1 µM (inactive); in assay [9], 59.4 µM (inactive); in [10], 36.1 µM (inactive); in assay [12], 86.5 µM (inactive); in assay [13] it was 41.7 µM (inactive); in assay [14], 57.8 µM. The GI50 was 30.1 µM (inactive) in assay [15]; 12.3 µM (inactive) in assay [16]; 69.3 µM (inactive) in assay [17]; 87.1 µM (inactive) in assay [20]; 61.9 µM (inactive) in [18]; 30.4 µM (inactive) in assay [19].

Turning to `COCN1C(=O)[C@@H]2CCCN2C(=O)c2cc(OC)c(Cc3ccccc3)cc21`, the GI50 in assay [1] was 93.3 µM (inactive); in [2], > 100 µM (inactive); in assay [3] it was > 100 µM (inactive); in [5], 83.6 µM (inactive); in assay [8] it was > 100 µM (inactive); in assay [9], 62.4 µM (inactive). Further, the GI50 in [10] is > 100 µM (inactive); in assay [11], 83.9 µM (inactive); in assay [12], > 100 µM (inactive); in assay [14], > 100 µM; in assay [15], 81.8 µM (inactive); in assay [16], > 100 µM (inactive). Also, the GI50 in assay [17] is > 100 µM (inactive); in assay [20] it was 43.3 µM (inactive); in assay [18], 74.5 µM (inactive); in assay [19], 57 µM (inactive).

For the compound `COC(=O)Nc1nc2cc(S(=O)(=O)n3nnc4ccccc43)ccc2[nH]1`, the GI50 in [1] is > 100 µM (inactive); in assay [2], > 100 µM (inactive); in assay [3], 21.3 µM (inactive); in [4], > 100 µM (inactive); in [5], > 100 µM (inactive); in [6] it was > 100 µM (inactive). In addition, the GI50 in [8] is > 100 µM (inactive); in [9] it was 53.8 µM (inactive); in assay [10], 10.2 µM (inactive); in [11] it was 36.8 µM (inactive); in assay [12], 40.2 µM (inactive); in assay [13] it was 0.708 µM (active). The GI50 in assay [14] is > 100 µM; in [15], 17.6 µM (inactive); in assay [16], > 100 µM (inactive); in assay [17] it was > 100 µM (inactive); in [20], 37.8 µM (inactive); in assay [18], 35 µM (inactive). For the same compound, the GI50 in [19] is > 100 µM (inactive).

As for `COc1cc(O)c(C(=O)/C=C/c2ccc(O)cc2)cc1Oc1ccc(C(=O)/C=C/c2ccc(O)cc2)c(O)c1` [RHUSCHALCONE IV], the GI50 in assay [1] was 1.36 µM (inactive); in assay [2] it was 3.21 µM (inactive); in assay [3], 6.52 µM (inactive); in assay [4], 2.88 µM (inactive); in assay [5], 2.96 µM (inactive); in assay [6], 2.87 µM (inactive). The GI50 in assay [8] was 3.9 µM (inactive); in assay [9], 1.8 µM (inactive); in assay [10] it was 2.37 µM (inactive); in [11] it was 1.94 µM (inactive); in assay [12] it was 2.23 µM (inactive); in [13] it was 2.34 µM (inactive). Moreover, the GI50 in assay [14] was 1.79 µM; in assay [15] it was 2.92 µM (inactive); in assay [16] it was 2.27 µM (inactive); in assay [17], 1.44 µM (inactive); in assay [20], 2.29 µM (inactive); in assay [18], 3.78 µM (inactive). The GI50 in assay [19] was 2.56 µM (inactive).
